# Data reported in patent US20230312522A1, “CYP46A1 INHIBITORS AND METHODS OF USE THEREOF” (Sage Therapeutics, Inc., priority 2020, published 2023).
# Target: CYP46A1 (Homo sapiens (Human), UniProt Q9Y6A2)
# Assay: CYP46A1 enzyme assay (testosterone substrate, HPLC-MS)
# Assay type: biochemical
# Settings: CYP46A1 5 μM, Testosterone 10 mM, NADPH-generating system, 37° C., 15 minutes
# Experimental: Briefly, in a 384-well plate format, 10 μL per well of an enzyme-substrate mixture of CYP46A1 (5 μM final concentration) and Testosterone ([…] final concentration) were dispensed to wells containing test compound. For CYP46A1 titration, 5 μL per well of serially diluted CYP46A1 (concentrations including 10 μM, 5 μM, and 2.5 μM) and Testosterone (concentration of […]) were dispensed. For Testosterone titration, 5 μL per well of serially diluted Testosterone (concentrations including 10 μM, 5 μM, and 2.5 μM) and CYP46A1 (concentration of 5 μM) were dispensed. The plates were centrifuged at 1000 rpm for 30 seconds, and then sealed and incubated at 37° C. for 30 minutes. The plate was removed from the incubator, and then 10 μL per well of NADPH-generating system were dispensed to initiate the reaction. The plates were incubated at 37° C. for 15 minutes, added with 80 μL per well of 100% methanol consisting 1 ng/ml diclofenac as internal standard, and then transferred for HPLC-MS.
# In Table 2, A indicates a CYP46A1 IC50<0.1 μM, B indicates a CYP46A1 IC50 (μM) of 0.1 μM to <1.0 μM, and C indicates a CYP46A1 IC50 (μM) of ≥1.0 μM
# Sequence of CYP46A1 (Q9Y6A2 whole entry, species assumed): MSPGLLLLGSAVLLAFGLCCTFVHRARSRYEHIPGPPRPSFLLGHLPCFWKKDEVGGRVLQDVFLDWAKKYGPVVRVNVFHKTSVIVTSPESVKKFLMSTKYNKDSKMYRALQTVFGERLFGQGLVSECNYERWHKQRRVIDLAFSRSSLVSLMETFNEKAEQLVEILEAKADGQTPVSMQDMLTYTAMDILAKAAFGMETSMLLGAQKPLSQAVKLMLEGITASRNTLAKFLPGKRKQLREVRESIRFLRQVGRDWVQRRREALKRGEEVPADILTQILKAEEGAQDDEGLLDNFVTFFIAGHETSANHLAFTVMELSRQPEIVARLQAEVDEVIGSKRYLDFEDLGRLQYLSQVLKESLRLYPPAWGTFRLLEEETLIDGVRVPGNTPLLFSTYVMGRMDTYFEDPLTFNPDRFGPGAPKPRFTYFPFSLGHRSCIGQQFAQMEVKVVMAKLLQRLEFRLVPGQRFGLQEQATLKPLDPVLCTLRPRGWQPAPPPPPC
row,SMILES,IC50
1,"O=C(c1cccnc1-c1ccncn1)N1CCC(F)(CC2CCOCC2)CC1 [Compound 2, (4-fluoro-4-((tetrahydro-2H-pyran-4-yl)methyl)piperidin-1-yl)(2-(pyrimidin-4-yl)pyridin-3-yl)methanone]",≥ 1 µM
2,O=C(c1cccnc1-c1ccncc1)N1CCC(F)(CC2CCOCC2)CC1 [Compound 3],≥ 1 µM
3,"O=C(c1cccnc1-c1ccncn1)N1CCC(F)(Cc2ccc(C3CC3)cn2)CC1 [Compound 7, (4-((5-cyclopropylpyridin-2-yl)methyl)-4-fluoropiperidin-1-yl)(2-(pyrimidin-4-yl)pyridin-3-yl)methanone]",< 0.1 µM
4,"N#Cc1ccc(CC2(F)CCN(C(=O)c3cccnc3-c3ccncn3)CC2)c(F)c1 [Compound 9, 3-fluoro-4-((4-fluoro-1-(2-(pyrimidin-4-yl)nicotinoyl)piperidin-4-yl)methyl)benzonitrile]",< 0.1 µM
5,"O=C(c1cccnc1-c1ccncn1)N1CCC(F)(Cc2ccc(F)cn2)CC1 [Compound 10, (4-fluoro-4-((5-fluoropyridin-2-yl)methyl)piperidin-1-yl)(2-(pyrimidin-4-yl)pyridin-3-yl)methanone]",0.1 to 1 µM
6,"N#Cc1cc(F)c(CC2(F)CCN(C(=O)c3cccnc3-c3ccncn3)CC2)c(F)c1 [Compound 11, 3,5-difluoro-4-((4-fluoro-1-(2-(pyrimidin-4-yl)nicotinoyl)piperidin-4-yl)methyl)benzonitrile]",< 0.1 µM
7,N#Cc1ccc([C@H](O)C2(F)CCN(C(=O)c3cccnc3-c3ccncn3)CC2)c(F)c1 [Compound 15],< 0.1 µM
8,N#Cc1ccc([C@@H](O)C2(F)CCN(C(=O)c3cccnc3-c3ccncn3)CC2)c(F)c1 [Compound 16],0.1 to 1 µM
9,"N#Cc1ccc(C(=O)C2(F)CCN(C(=O)c3cccnc3-c3ccncn3)CC2)c(F)c1 [Compound 17, 3-fluoro-4-(4-fluoro-1-(2-(pyrimidin-4-yl)nicotinoyl)piperidine-4-carbonyl)benzonitrile]",0.1 to 1 µM
10,"N#Cc1ccc(CC2(F)CCN(C(=O)c3cccnc3-c3ccncn3)CC2)nc1 [Compound 21, 6-((4-fluoro-1-(2-(pyrimidin-4-yl)nicotinoyl)piperidin-4-yl)methyl)nicotinonitrile]",0.1 to 1 µM
11,"O=C(c1cccnc1-c1ccncn1)N1CCC(F)(Cc2ncc(Cl)cc2F)CC1 [Compound 30, (4-((5-chloro-3-fluoropyridin-2-yl)methyl)-4-fluoropiperidin-1-yl)(2-(pyrimidin-4-yl)pyridin-3-yl)methanone]",0.1 to 1 µM
12,"O=C(c1cccnc1-c1ccncc1)N1CCC(F)(Cc2ccc(C(F)(F)F)nn2)CC1 [Compound 37, [2,4′-bipyridin]-3-yl(4-fluoro-4-((6-(trifluoromethyl)pyridazin-3-yl)methyl)piperidin-1-yl)methanone]",0.1 to 1 µM
13,"O=C(c1cccnc1-c1ccncn1)N1CCC(F)(Cc2cnccn2)CC1 [Compound 44, (4-fluoro-4-(pyrazin-2-ylmethyl)piperidin-1-yl)(2-(pyrimidin-4-yl)pyridin-3-yl)methanone]",0.1 to 1 µM
14,"O=C(c1cccnc1-c1ccncn1)N1CCC(F)(Cc2cccnn2)CC1 [Compound 48, (4-fluoro-4-(pyridazin-3-ylmethyl)piperidin-1-yl)(2-(pyrimidin-4-yl)pyridin-3-yl)methanone]",0.1 to 1 µM
15,"O=C(c1cccnc1-c1ccncc1)N1CCC(F)(Cc2cccnn2)CC1 [Compound 49, [2,4′-bipyridin]-3-yl(4-fluoro-4-(pyridazin-3-ylmethyl)piperidin-1-yl)methanone]",0.1 to 1 µM
16,"Cc1cnc(CC2(F)CCN(C(=O)c3cccnc3-c3ccncn3)CC2)cn1 [Compound 50, (4-fluoro-4-((5-methylpyrazin-2-yl)methyl)piperidin-1-yl)(2-(pyrimidin-4-yl)pyridin-3-yl)methanone]",0.1 to 1 µM

# The remaining lines, values ahead:
row,IC50,SMILES
1,< 0.1 µM,"O=C(c1cccnc1-c1ccncn1)N1CCC(F)(Cc2ccc(F)cc2)CC1 [Compound 1, (4-fluoro-4-(4-fluorobenzyl)piperidin-1-yl)(2-(pyrimidin-4-yl)pyridin-3-yl)methanone]"
2,< 0.1 µM,"O=C(c1cccnc1-c1ccncn1)N1CCC(F)(Cc2ccc(C(F)(F)F)cc2)CC1 [Compound 4, (4-fluoro-4-(4-(trifluoromethyl)benzyl)piperidin-1-yl)(2-(pyrimidin-4-yl)pyridin-3-yl)methanone]"
3,< 0.1 µM,"O=C(c1cccnc1-c1ccncn1)N1CCC(F)(Cc2ccccn2)CC1 [Compound 5, (4-fluoro-4-(pyridin-2-ylmethyl)piperidin-1-yl)(2-(pyrimidin-4-yl)pyridin-3-yl)methanone]"
4,< 0.1 µM,"N#Cc1ccc(CC2(F)CCN(C(=O)c3cccnc3-c3ccncn3)CC2)cc1 [Compound 6, 4-((4-fluoro-1-(2-(pyrimidin-4-yl)nicotinoyl)piperidin-4-yl)methyl)benzonitrile]"
5,0.1 to 1 µM,"O=C(c1cccnc1-c1ccncn1)N1CCC(F)(C(=O)c2ccc(C(F)(F)F)cc2)CC1 [Compound 12, (4-fluoro-1-(2-(pyrimidin-4-yl)nicotinoyl)piperidin-4-yl)(4-(trifluoromethyl)phenyl)methanone]"
6,0.1 to 1 µM,"O=C(c1cccnc1-c1ccncn1)N1CCC(F)(Cc2cc(C(F)(F)F)ccn2)CC1 [Compound 25, (4-fluoro-4-((4-(trifluoromethyl)pyridin-2-yl)methyl)piperidin-1-yl)(2-(pyrimidin-4-yl)pyridin-3-yl)methanone]"
7,0.1 to 1 µM,"O=C(c1cccnc1-c1ccncn1)N1CCC(F)(Cc2ccc(OC(F)(F)F)cn2)CC1 [Compound 27, (4-fluoro-4-((5-(trifluoromethoxy)pyridin-2-yl)methyl)piperidin-1-yl)(2-(pyrimidin-4-yl)pyridin-3-yl)methanone]"
8,0.1 to 1 µM,"O=C(c1cccnc1-c1ccncn1)N1CCC(F)(Cc2ccc(C(F)(F)F)nn2)CC1 [Compound 36, (4-fluoro-4-((6-(trifluoromethyl)pyridazin-3-yl)methyl)piperidin-1-yl)(2-(pyrimidin-4-yl)pyridin-3-yl)methanone]"
9,0.1 to 1 µM,"O=C(c1cccnc1-c1ccncn1)N1CCC(F)(Cc2cnc(C(F)(F)F)cn2)CC1 [Compound 40, (4-fluoro-4-((5-(trifluoromethyl)pyrazin-2-yl)methyl)piperidin-1-yl)(2-(pyrimidin-4-yl)pyridin-3-yl)methanone]"
10,0.1 to 1 µM,"O=C(c1cccnc1-c1ccncn1)N1CCC(F)(Cc2cnc(C(F)(F)F)nc2)CC1 [Compound 41, (4-fluoro-4-((2-(trifluoromethyl)pyrimidin-5-yl)methyl)piperidin-1-yl)(2-(pyrimidin-4-yl)pyridin-3-yl)methanone]"
11,0.1 to 1 µM,"Cc1ccc(CC2(F)CCN(C(=O)c3cccnc3-c3ccncn3)CC2)nc1 [Compound 42, (4-fluoro-4-((5-methylpyridin-2-yl)methyl)piperidin-1-yl)(2-(pyrimidin-4-yl)pyridin-3-yl)methanone]"
12,0.1 to 1 µM,Cc1ccc(CC2(F)CCN(C(=O)c3cccnc3-c3ccncn3)CC2)cn1 [Compound 53]
